Each structure is given as a SMILES string. pIC50: −log10 of the molar value.

In this assay the target is T1, acetylcholinesterase from Electrophorus electricus (AChE, EC 3.1.1.7, type V-S) (Electrophorus electricus, UniProt O42275).
T1 construct: commercial native electric eel enzyme, type V-S (Merck), crude enzyme protein dissolved in PBS with BSA as stabilizer
Nature of the assay: fluorimetric indoxyl acetate assay (Open Meter Duo). Type of assay: biochemical. The source says: fluorimetric indoxyl acetate assay (Open Meter Duo) on acetylcholinesterase from Electrophorus electricus (AChE, EC 3.1.1.7, type V-S)

T1 sequence (O42275 24-633): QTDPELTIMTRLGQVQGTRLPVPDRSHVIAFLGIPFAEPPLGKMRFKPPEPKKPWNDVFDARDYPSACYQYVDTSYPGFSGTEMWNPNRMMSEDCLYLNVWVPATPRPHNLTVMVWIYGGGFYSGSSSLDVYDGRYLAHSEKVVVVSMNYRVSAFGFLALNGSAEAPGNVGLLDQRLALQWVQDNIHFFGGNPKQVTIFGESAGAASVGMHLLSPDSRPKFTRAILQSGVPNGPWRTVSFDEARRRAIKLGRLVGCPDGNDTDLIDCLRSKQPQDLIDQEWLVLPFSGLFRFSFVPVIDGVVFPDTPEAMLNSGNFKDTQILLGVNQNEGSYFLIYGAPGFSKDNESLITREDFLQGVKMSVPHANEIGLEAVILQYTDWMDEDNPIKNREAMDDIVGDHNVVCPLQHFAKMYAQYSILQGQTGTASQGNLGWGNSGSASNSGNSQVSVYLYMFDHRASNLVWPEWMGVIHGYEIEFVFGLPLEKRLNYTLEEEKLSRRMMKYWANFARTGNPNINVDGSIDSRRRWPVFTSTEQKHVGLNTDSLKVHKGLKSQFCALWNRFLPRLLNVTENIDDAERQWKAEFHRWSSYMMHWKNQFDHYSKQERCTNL

On to `CNC(=O)Oc1cccc2c1OC(C)(C)C2` [Carbofuran], for which the pIC50 is 7.07.

The pIC50 is the IC50 on a negative log10 scale, so that one unit is a factor of ten. Lower therefore signals a high IC50.

The values above are taken from publication PMC10975980, “Open Meter Duo: Low-Cost Instrument for Fluorimetric Determination of Cholinesterase Activity” (Sensors (Basel, Switzerland), 2024).
